Results from patent US6103728A, “Quinazolines” (Sugen, Inc., priority 1997, dated 2000).

How the values were obtained:
Format in all cases: cell-based
IGF-1 Receptor = target: T1, IGF-1 Receptor (Homo sapiens, UniProt P08069); assay: Cellular IGF-1 Receptor ELISA (3T3/IGF-1R cells); conditions: 20 nM IGF-1, serum-free, 2 h drug incubation
T1 construct: expressed in transfected cells; host or cells: 3T3 cells (3T3/IGF-1R)

EGFR = target: T2, EGFR (Homo sapiens, UniProt P00533); assay: EGFR Whole Cell Kinase Assay (EGFR-3T3 assay, ELISA); conditions: NIH3T3 clone C7 over-expressing human EGF receptor; 25 nM EGF
T2 construct: expressed in transfected cells; host or cells: NIH3T3 clone C7 (EGFR/C7)
Excerpt: (§1) The following examples illustrates the ability of the exemplary compounds to inhibit receptor tyrosine kinases, such as HER2 and/or EGFR. The following target cells were used for cellular kinase assays: NIH3T3 clone C7 (Honegger et al., supra) engineered to over-express human EGF receptor; NIH3T3 cells engineered to over-express a chimeric receptor containing the EGFR extracellular domain and the HER2 intracellular kinase domain; the human mammary carcinoma line BT474 (ATCC ATB2) expressing HER2; and the human glioblastoma line U1242 that expresses PDGFR-beta. Growth assays were carried out using human mammary epithelial SKBR3 (ATCC HTB30) cells (SKBR3 cells over-express HER2), SKOV3 (ATCC HTB77) human ovarian cancer cell line (SKOV3 cells also over-express HER2), A431 cells (A431 cells over-express EGFR) MCF7 human breast carcinoma cells, MCF7 cells overexpressing the HER2 kinase (MCF7-HER2), NIH3T3 cells, and NIH3T3 cells overexpressing the HER2 kinase (3T3-HER2.
EGFR Whole Cell Kinase Assay
EGFR kinase activity (EGFR-3T3 assay) in whole cells was measured as described below:
A. Coat ELISA plates (Corning, 96 well, Cat. #25805-96) with 05-101 antibody at 0.5 μg per well in PBS, 150 μl final volume/well, and store overnight at 4° C. Coated plates are good for up to 10 days when stored at 4° C. […]

PDGFR-beta = target: T3, PDGFR-beta (Homo sapiens, UniProt P09619); assay: PDGF-R Cellular Assay (ELISA); conditions: human glioblastoma line U1242; PDGF-BB 100 ng/ml
T3 construct: the human glioblastoma line U1242 that expresses PDGFR-beta; endogenous in cells; host or cells: U1242 (U1242 MG) human glioblastoma cells
Excerpt: as §1, with “(3T3-HER2. […]” for “(3T3-HER2.”

HER2 = target: T4, HER2 (Homo sapiens, UniProt P04626); assay: HER2-ELISA, whole cell HER2 activity in BT474 cells; conditions: BT474 human breast tumor cells; serum-free; 2 h drug preincubation
T4 construct: a human breast tumor cell line which expresses high levels of HER2 kinase; endogenous in cells; host or cells: BT-474 human breast tumor cells
Excerpt: as §1
HER2-BT474 assays measuring whole cell HER2 activity was carried out as described below:
1) The cell line used in this assay is BT-474 (ATCC HBT20), a human breast tumor cell line which expresses high levels of HER2 kinase.
2) BT-474 is grown in an incubator with 5% CO2 at 37° C. The growth media is RPMI+10% FBS+GMS-G (Gibco supplement)+Glutamine.
3) A monoclonal anti-HER2 antibody is used in ELISA. […]

[1] = test system: chimeric receptor containing the EGFR extracellular domain and the HER2 intracellular kinase domain; assay: EGFR-HER2 chimeric receptor whole cell kinase assay in NIH3T3 cells (ELISA); conditions: NIH3T3 cells with EGFR/HER2 chimeric receptor; 100 nM EGF; 2 h drug incubation; read-out: ELISA DATA HER2 - (3T3)
Excerpt: as §1
EGFR-HER2 Chimeric Recetor
HER2 kinase activity (EGFR-3T3) in whole cells was measured as described below:
The materials and reagents are identical to these used in example 1, the EGFR whole cell kinase assay.
A. Coat ELISA plates (Corning, 96 well, Cat. #25805-96) with 05-101 antibody at 0.5 µg per well in PBS, 100 μl final volume/well, and store overnight at 4° C. […]

T4 sequence (P04626 23-1255): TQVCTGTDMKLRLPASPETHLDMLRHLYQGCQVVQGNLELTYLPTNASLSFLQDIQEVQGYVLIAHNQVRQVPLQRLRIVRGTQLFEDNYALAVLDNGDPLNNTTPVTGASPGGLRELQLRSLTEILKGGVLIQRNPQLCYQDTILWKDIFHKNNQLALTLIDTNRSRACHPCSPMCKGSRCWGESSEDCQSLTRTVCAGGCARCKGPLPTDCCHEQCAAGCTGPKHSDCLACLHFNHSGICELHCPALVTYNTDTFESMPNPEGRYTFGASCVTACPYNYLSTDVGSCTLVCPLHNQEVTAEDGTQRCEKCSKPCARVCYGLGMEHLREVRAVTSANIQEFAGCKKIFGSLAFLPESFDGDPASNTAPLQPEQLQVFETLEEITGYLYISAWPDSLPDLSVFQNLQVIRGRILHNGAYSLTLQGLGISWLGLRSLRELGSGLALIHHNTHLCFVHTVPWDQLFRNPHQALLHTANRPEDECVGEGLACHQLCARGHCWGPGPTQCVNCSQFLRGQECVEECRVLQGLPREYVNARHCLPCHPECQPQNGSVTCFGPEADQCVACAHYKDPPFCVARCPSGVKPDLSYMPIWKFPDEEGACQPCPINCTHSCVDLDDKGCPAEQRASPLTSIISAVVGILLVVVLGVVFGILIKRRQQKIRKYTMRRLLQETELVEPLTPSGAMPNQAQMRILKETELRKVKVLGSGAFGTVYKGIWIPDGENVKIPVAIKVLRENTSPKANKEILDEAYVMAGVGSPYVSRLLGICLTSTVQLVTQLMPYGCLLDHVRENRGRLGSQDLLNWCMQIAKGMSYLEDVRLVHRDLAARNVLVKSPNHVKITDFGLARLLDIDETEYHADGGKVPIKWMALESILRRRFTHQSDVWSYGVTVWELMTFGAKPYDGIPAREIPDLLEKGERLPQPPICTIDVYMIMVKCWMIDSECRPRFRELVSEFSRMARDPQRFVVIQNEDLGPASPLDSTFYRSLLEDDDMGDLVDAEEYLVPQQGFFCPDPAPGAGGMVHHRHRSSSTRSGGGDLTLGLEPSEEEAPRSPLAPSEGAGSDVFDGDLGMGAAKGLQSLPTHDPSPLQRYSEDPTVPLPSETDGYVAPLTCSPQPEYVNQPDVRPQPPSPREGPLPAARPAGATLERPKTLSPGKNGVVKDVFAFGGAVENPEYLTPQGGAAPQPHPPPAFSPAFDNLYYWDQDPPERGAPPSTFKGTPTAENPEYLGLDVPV
T3 sequence (P09619 33-1106): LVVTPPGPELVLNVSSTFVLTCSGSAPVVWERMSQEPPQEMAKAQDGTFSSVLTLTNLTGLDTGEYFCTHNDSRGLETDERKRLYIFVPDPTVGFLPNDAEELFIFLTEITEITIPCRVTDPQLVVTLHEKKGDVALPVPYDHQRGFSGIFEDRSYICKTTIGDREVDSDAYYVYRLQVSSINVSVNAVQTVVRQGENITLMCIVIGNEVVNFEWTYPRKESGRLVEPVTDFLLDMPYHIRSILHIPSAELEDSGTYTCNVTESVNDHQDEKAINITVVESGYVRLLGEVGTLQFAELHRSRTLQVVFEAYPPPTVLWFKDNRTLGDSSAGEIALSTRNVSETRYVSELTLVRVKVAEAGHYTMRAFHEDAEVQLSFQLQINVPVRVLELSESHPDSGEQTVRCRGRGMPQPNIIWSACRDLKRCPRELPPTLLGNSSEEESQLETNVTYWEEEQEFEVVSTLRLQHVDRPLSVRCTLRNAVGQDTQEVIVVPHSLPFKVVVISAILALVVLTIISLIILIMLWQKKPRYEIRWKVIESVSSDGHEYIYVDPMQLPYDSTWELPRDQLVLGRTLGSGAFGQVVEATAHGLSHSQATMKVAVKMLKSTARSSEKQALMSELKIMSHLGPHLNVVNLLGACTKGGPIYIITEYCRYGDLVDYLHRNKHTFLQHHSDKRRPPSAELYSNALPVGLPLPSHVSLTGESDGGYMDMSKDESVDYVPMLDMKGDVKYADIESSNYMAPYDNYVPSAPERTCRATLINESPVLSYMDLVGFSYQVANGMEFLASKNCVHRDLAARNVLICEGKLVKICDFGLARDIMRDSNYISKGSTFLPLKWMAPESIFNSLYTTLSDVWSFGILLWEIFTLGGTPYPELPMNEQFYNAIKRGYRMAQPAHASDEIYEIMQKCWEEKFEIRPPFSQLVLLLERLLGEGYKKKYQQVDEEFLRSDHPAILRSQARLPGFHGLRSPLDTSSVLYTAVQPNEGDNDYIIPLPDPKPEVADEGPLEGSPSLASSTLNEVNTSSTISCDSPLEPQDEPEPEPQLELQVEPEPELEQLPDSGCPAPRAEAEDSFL
T2 sequence (P00533 25-1210): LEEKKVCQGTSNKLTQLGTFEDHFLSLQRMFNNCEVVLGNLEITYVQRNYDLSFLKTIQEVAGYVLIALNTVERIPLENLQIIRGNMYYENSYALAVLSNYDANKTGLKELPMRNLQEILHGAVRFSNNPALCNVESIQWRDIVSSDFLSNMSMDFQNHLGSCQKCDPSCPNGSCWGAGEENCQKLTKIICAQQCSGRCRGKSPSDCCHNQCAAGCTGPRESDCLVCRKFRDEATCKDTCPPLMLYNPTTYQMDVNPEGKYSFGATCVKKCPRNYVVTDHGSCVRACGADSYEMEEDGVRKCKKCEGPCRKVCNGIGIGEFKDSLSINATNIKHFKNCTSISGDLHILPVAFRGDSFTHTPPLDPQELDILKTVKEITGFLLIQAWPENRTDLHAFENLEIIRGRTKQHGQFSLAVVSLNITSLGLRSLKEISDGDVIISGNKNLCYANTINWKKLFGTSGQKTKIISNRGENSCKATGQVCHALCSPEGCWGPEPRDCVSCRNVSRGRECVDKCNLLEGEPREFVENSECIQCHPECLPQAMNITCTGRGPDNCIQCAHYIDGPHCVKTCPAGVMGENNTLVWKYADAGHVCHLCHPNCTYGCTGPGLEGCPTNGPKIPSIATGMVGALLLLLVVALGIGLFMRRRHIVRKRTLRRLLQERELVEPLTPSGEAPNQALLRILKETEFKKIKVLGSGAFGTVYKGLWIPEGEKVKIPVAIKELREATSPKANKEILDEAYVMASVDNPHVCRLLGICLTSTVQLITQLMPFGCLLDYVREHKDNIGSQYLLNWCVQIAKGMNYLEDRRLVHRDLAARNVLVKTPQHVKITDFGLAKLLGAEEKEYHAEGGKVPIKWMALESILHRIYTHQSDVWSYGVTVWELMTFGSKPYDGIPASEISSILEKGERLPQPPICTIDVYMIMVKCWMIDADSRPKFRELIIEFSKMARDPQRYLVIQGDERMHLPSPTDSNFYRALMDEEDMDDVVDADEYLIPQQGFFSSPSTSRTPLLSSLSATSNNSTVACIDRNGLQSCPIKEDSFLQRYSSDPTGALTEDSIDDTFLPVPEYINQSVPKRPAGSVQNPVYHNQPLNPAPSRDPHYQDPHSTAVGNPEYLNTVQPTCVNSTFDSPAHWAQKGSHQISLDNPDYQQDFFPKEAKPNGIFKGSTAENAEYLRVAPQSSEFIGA
T1 sequence (P08069 31-1367): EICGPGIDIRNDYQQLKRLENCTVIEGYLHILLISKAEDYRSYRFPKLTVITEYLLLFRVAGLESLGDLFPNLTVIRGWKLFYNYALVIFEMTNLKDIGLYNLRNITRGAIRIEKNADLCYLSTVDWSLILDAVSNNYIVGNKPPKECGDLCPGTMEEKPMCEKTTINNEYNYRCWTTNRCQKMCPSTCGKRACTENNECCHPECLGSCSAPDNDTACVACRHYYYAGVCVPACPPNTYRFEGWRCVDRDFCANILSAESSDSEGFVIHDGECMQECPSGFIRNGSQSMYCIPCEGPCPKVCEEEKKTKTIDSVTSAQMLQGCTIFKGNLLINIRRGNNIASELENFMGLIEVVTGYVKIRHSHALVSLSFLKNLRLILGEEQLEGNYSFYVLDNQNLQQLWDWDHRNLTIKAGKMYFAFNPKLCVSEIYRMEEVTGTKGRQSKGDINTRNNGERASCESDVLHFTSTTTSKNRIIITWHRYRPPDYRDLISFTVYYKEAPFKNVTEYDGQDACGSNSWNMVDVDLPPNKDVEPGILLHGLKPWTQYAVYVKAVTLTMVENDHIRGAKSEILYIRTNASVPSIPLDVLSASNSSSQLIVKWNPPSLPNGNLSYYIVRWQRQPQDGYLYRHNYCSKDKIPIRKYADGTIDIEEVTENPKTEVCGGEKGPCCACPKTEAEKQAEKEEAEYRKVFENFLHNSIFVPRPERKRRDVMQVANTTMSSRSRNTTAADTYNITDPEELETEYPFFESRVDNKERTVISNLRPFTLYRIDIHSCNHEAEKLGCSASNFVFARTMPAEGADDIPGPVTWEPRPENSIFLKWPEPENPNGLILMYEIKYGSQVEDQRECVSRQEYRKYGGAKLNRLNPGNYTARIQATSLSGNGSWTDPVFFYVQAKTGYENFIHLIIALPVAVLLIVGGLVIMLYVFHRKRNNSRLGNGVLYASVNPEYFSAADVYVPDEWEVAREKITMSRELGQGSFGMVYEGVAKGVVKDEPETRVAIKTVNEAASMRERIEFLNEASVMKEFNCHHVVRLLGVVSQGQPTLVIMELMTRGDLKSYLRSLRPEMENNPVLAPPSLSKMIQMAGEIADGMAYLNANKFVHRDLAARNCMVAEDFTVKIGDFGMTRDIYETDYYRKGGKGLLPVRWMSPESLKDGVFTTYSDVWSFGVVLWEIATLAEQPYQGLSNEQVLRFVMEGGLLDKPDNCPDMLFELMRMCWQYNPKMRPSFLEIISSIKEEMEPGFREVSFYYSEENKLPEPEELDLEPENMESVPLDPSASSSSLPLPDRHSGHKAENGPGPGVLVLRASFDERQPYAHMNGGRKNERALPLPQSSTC

IC50 (IGF-1 Receptor): > 50 µM
IC50 (EGFR): > 100 µM
IC50 (PDGFR-beta): > 100 µM
IC50 (HER2): > 100 µM
IC50 [1]: > 50 µM
SMILES: COC(=O)C(c1cccc(Br)c1)c1ncnc2cc(OC)c(OC)cc12 (centres unmarked) [Compound D002]
